Source: US20130178479A1, “PHARMACEUTICAL COMBINATIONS” (NOVARTIS AG, priority 2010, published 2013)
pIC50: −log10 of the molar value. Read-outs that look alike come from different tables or passages of the source.

Columns and labels:
[1] = system: six cell lines from various tissue lineages; assay: Antiproliferative effect of combinations, summary over six cell lines; type: cell-based, human; conditions: depends on the cell types
Method: (§1) Celt Proliferation Assay: Cell viability was determined by measuring cellular ATP content using the CellTiter-Glo® Luminescent Cell Viability Assay (Promega #G7573) according to manufacturer's protocol. Briefly, 1500-50000 cells were plated on either 384 or 96 well plates in 30 μl (384 well) or 100 μl (96 well) growth media, cells were: allowed to attach overnight and followed by 72 hrs of incubation with various concentration of drugs or drug combinations (10 μl per well in 384 well plates), at the end of the drug treatment, 30 μl of the CellTiter-Glo regent were added to each well (384 well plates) to lyse the cell, and luminescence signals were recorded on a Envision plate reader.
Method for calculating the effect of the Combination: To evaluate the everolimus and Compound A combination effect in a non-bias way and to identify synergistic effect at all possible concentrations, the combination studies were conducted with a “dose matrix”, where a combination is tested in all possible permutations of serially-diluted everolimus and Compound A single agent doses, in all combination assays, compounds were applied simultaneously. Single agent dose responding curves, IC50, IC90, and the Synergy are all analyzed using Chalice software (CombinatoRx, Cambridge, Mass.). […] Deviations from dose additivity can be assessed visually on an Isobologram or numerically With a Combination Index. […]

[2] = system: GA-10 human Non-Hodgkin's Lymphoma cancer cells; assay: Cell proliferation assay (CellTiter-Glo) in GA-10; type: cell-based
Method: as §1
(§2) Method for calculating the effect of the Combination: To evaluate the everolimus and Compound A combination effect in a non-bias way and to identify synergistic effect at all possible concentrations, the combination studies were conducted with a “dose matrix”, where a combination is tested in all possible permutations of serially-diluted everolimus and Compound A single agent doses, in all combination assays, compounds were applied simultaneously. Single agent dose responding curves, IC50, IC90, and the Synergy are all analyzed using Chalice software (CombinatoRx, Cambridge, Mass.). Synergy was calculated by comparing a combination's response to those of its single agents, against the drug-with-itself dose-additive reference model. Deviations from dose additivity can be assessed visually on an Isobologram or numerically With a Combination Index. Excess inhibition compare to additivity can also be plotted as a full dose-matrix chart to capture where the synergies occur. To quantify the overall strength of combination effects, a volume score VHSA=ΣXYInfXInfY(Idata−IHSA) is also calculated between the data and the highest-single-agent surface, normalized for single agent dilution factors fX,fY[ref].
The cells were plated at 50000 cells/well in 96 well plates in triplicate, and treated with compound for 72 hrs prior to the measurement (FIG. 10). The following “dose matrix”, everolimus: 8 dose, 3×, 500 nM to 0.23 nM, Compound A: 8 dose, 2×, 1 μM to 8 nM, was applied.

PI3K/mTOR = conditions: cited from earlier work
[3] = system: NCI-H23 human non-small cell lung cancer cells; assay: Cell proliferation assay (CellTiter-Glo) in NCI-H23; type: cell-based; conditions: for pIC50: Homo sapiens
Method: as §1, §2
The experiment setup is identical to the p4EBP1 high content assay as used for the NCI-H23 cell model, (FIG. 5). And the same “doss matrix” (everolimus; 5 dose, 4×, 1.2 μM to 5 nM, Compound A: 9 dose, 2×, 1.2 μM to 5 nM) was applied.
Another experiment was conducted to evaluate the combination effect using cell titer glow (CTG) assay, this time, cells were plated in 384 well plates at 1000 cells/well in triplicates, and treated with compound for 72 hours before the measurement (FIG. 6). in this extended “dose matrix” study, everolimus was subjected to a 11 dose 4× serial dilution with the highest dose at 1 uM and the low dose at about 1 pM, and Compound A was subjected to a 9 dose 4× serial dilution with high dose at 1 μM and low dose at about 16 pM.

[4] = system: AN3 CA human endometrial cancer cells; assay: Cell proliferation assay (CellTiter-Glo) in AN3 CA; type: cell-based
Method: as §1, §2
The cells were plated at 1500 cells/well in 384 well plates in quadruplicates, and treated with compound for 72 hrs before the measurement (FIG. 9). The following “dose matrix”, everolimus: 11 dose, 4×, 500 nM to 0.5 pM, Compound A: 9 dose, 4×, 1 μM to […], was applied.

[5] = system: RPMI 8226 human Multiple Myeloma cancer cells; assay: Cell proliferation assay (CellTiter-Glo) in RPMI 8226; type: cell-based; conditions: for pIC50: Homo sapiens
Method: as §1, §2
The cells were plated at 50000 cells/well in 96 well plates in triplicates, and treated with compound for 72 hrs prior to the measurement (FIG. 12). The following “dose matrix”, everolimus: 8 dose, 3×, 500 nM to 0.23 nM, Compound A: 8 dose, 2×, 1 μM to 8 nM, was applied.

[6] = NCI-H23, 72 h, single agent, extended dose matrix, 72 hours (FIG. 6), read-out: IC50, inhibition of cell growth
[7] = single agent, dose matrix 1.2 μM to 5 nM (FIG. 5)
[8] = single agent, extended dose matrix, 72 hours (FIG. 6)
[9] = single agent, RPMI 8226, 72 hrs

Cn1c(=O)n(-c2ccc(C(C)(C)C#N)cc2)c2c3cc(-c4cnc5ccccc5c4)ccc3ncc21 [Compound A, 2-methyl-2-[4-(3-methyl-2-oxo-8-quinolin-3-yl-2,3-dihydro-imidazo[4,5-c]quinolin-1-yl)-phenyl]-propionitrile]
enhancement of the potency of Compound A by everolimus [1]: 5-100 fold | full effective dose amount of Compound A ([2]; Compound A alone, GA-10): > 250 nM | IC90 ([2]; Homo sapiens, GA-10, 72 h, single agent, GA-10, 72 hrs, read-out: IC90, inhibition of cell growth): 250 nM | IC90 ([2]; Homo sapiens, GA-10, concomitant everolimus, GA-10, read-out: IC90 for Compound A, cell growth): 16 nM | pIC50 ([2]; Homo sapiens, single agent, GA-10, 72 hrs, read-out: IC50, inhibition of cell growth): ~7.60 | Amax ([2]; single agent, GA-10, 72 hrs): 1 | IC90 ([2]; single agent, GA-10, 72 hrs, read-out: IC90, inhibition of cell growth): ~300 nM | full effective dose amount of Compound A ([2]; with trace amount (sub-nanomolar) of everolimus, GA-10): 16 to 62 nM | concentration at which mTOR inhibition predominates (PI3K/mTOR; low concentration): less than 100 nmol/L | concentration at which dual PI3K/mTOR inhibition is observed (PI3K/mTOR; relatively higher concentrations): approximately 500 nmol/L | pIC50 [3, 6]: 7.10 | pIC50 ([3]; NCI-H23, in combination with 5 nM everolimus, read-out: IC50 for Compound A, cell growth): 8.00 | pIC50 ([3]; NCI-H23, single agent, dose matrix 1.2 μM to 5 nM (FIG. 5), read-out: IC50, inhibition of cell growth): 7.11 | Amax, the maximum fraction of inhibition [3, 7]: 0.7 | growth inhibition compare to DMSO control (at Amax) [3, 7]: 70% | Amax [3, 8]: 0.7 | reduction on IC50 of Compound A, cell growth ([3]; with 5 nM everolimus vs Compound A alone): 8 fold | full effective dose amount of Compound A ([4]; Compound A alone): > 64 nM | pIC50 ([4]; Homo sapiens, single agent, 72 hrs, read-out: IC50, inhibition of cell growth): 8.30 | Amax ([4]; single agent, 72 hrs): 0.69 | full effective dose amount of Compound A ([4]; with trace amount (picomolar) of everolimus): close to nanomolar or sub-nanomolar range | full effective dose amount of Compound A ([5]; Compound A alone, RPMI 8226): > 125 nM | pIC50 ([5]; concomitant everolimus, RPMI 8226, read-out: IC50 for Compound A, cell growth): 7.80 | pIC50 ([5]; single agent, RPMI 8226, 72 hrs, read-out: IC50, inhibition of cell growth): ~6.90 | Amax [5, 9]: 0.7 | full effective dose amount of Compound A ([5]; with trace amount (sub-nanomolar) of everolimus, RPMI 8226): 16 to 62 nM

CO[C@H]1C[C@@H]2CC[C@@H](C)[C@@](O)(O2)C(=O)C(=O)N2CCCC[C@H]2C(=O)O[C@H]([C@H](C)C[C@@H]2CC[C@@H](OCCO)[C@H](OC)C2)CC(=O)[C@H](C)/C=C(\C)[C@@H](O)[C@@H](OC)C(=O)[C@H](C)C[C@H](C)/C=C/C=C/C=C/1C [everolimus, 40-O-(2-hydroxyethyl)-rapamycin, reference compound]
Amax ([2]; single agent, GA-10, 72 hrs): 0.3 | pIC50 [3, 6]: < 6.00 | Amax, the maximum fraction of inhibition [3, 7]: 0.3 | IC50, inhibition of cell growth [3, 7]: never achieved an IC50 | Amax [3, 8]: 0.3 | Amax ([4]; single agent, 72 hrs): 0.3 | Amax [5, 9]: 0.15
